From patent publication US20070003531A1, “Methods for improving immunotherapy by enhancing survival of antigen-specific cytotoxic T lymphocytes” (University of Connecticut, priority 2005, published 2007) come the findings set out here.

Holding throughout (assay type): cell-based, human
Assay [1] has as its system MART-127-35 epitope specific CTLs. The assay is described as follows: IFN-γ response assay (ELISA). The method, then: IFN-γ response assay for the effector cells has been described previously. Briefly, the effector cells were co-cultured with the peptide pulsed (1 μg/ml) T2 cells. After 4-16 h, culture supernatants were harvested and IFN-γ was measured by ELISA as per manufacturer's protocol (R & D Systems, MN).

Assay [2] has as its system c-Jun phosphorylation (JNK activation) in CTL. The assay is described as follows: c-Jun phosphorylation in CTL during AICD (immunoblot). Particulars: CTL re-stimulated with Mart-127-35 peptide after pre-incubation. The method, then: FIG. 1. […] (A) Effect of the JNK inhibitor SP600125 on AICD in the MART-127-35 epitope specific CTL. Histogram represents FACS analysis of the percent of MART-127-35 epitope specific CTLs that were tetramer positive and annexin negative after restimulation with MAGE-3271-279 control peptide (M3) pulsed T2 cells or MART-127-35 peptide (M1) pulsed T2 cells either alone or re-stimulated after pre-incubation with JNK inhibitor SP600125, p38-kinase inhibitor SB203580, ERK1/2 inhibitor PD98059 or caspase-inhibitor z-VAD-fink. MAGE-3271-279. (B) JNK activation results in phosphorylation of c-Jun during AICD in CTL that is blocked by SP600125. […] (i) Jurkat cells were treated with PMA+ionomycin in the absence or presence of SP600125 and JNK activation (c-Jun phosphorylation) was assessed with anti-phospho-c-Jun antibody. […] (ii) Jurkat cells were treated with Staurosporine for 1 and 4 hrs in the absence (S) or presence of caspase inhibitor, z-VAD-fmk (CI), JNK inhibitor, SP600125 (SP) or ERK1/2 inhibitor PD98059 (PD) and cleavage of PARP was detected by immunoblotting, using actin as a loading control. […] Percent annexin positive cells in all samples were quantified by FACS analysis and shown below the blot
Immunoblot analysis. […] Proteins bound to the resin were washed three times with RIPA buffer, re-suspended in sample buffer, and analyzed by SDS-PAGE and immunoblotting.
Background: In western blotting, separated proteins are transferred to a membrane and probed.

Assay [3] relates to Bcl family proteins in CTL. The assay is described as follows: Western blot of Bcl family pro- and anti-apoptotic proteins in CTL after secondary stimulation. The method, then: FIG. 12. Effect of antigen specific secondary stimulation on mitochondrial transmembrane membrane potential (Δψm), pro- and anti-apoptotic protein and expression of cell surface molecules. (A) Differential effect on membrane polarization in Mart-1 primary CTLs (top panel) vs. Jurkat T cells (bottom panel). CTLs were incubated with T2 cells either alone or loaded with peptide. After overnight secondary exposure cells were stained with Mart-1 tetramer/CD8 and DiOC6. Histogram represents the fluorescence of DiOC6 in the gated antigen specific tetramer^+ population (top panel). Jurkat T cells were also analyzed for modulation of membrane potential after TCR-driven stimulation (bottom panel). Values represent the mean±SD of fluorescence intensity triplicates from one out of three separate experiment. *p<0.001 (One Way ANOVA). […] (C) Expression of different cell surface receptors for survival or death signal in antigen specific population upon secondary stimulation. Values on left upper corner represent the geometric mean of the fluorescence intensity for that particular marker when stimulated with T2/MAGE-3271-279 while that on right upper corner represent the geometric mean of the fluorescence intensity when stimulated with T2/MART-127-35.
Washed cell pellets were lysed in RIPA buffer and a cytosolic fraction was prepared by spinning the lysate at 15,000 rpm. Proteins (20 μg/well) were separated on 15% SDS-PAGE, transferred onto nitrocellulose filters, probed with appropriate antibodies. Antibodies for Bcl-2, phospho Bcl-2, Bim, BCI-XL, Bax, Actin were purchased from Santa-Cruz Biotechnology, Santa-Cruz, Calif. Anti-Mcl-1 antibody was purchased from BD Pharmingen, Palo Alto, Calif. Blots were developed by HRP-tagged secondary antibody (Santa-Cruz Biotechnology, Santa-Cruz, Calif.) using a chemoluminescence kit (Amersham Biosciences, Buckinghamshire, U. K.).

“Also recorded” adds a separate entry of the source.

On to `O=C1c2ccccc2-c2n[nH]c3cccc1c23` [SP600125, anthra[1,9-cd]pyrazol-6(2H)-one], for which, in assay [1] (five days continued culture in IL-15 without the inhibitor), the “IFN-γ synthesis by rescued CTLs” value was “regained”. The “IFN-γ response by CTLs in presence of inhibitor” value in assay [1] (peptide pulsed T2 cells, inhibitor 25 μM) was “inhibited; also recorded: negatively regulates”. In addition, the “c-Jun activation (phosphorylation) in CTL during AICD” value in assay [2] was “blocked”. Also, in assay [3], the BCI-XL expression entry is given as “non-selectively up regulated”, the Bcl-2 expression entry was “non-selectively up regulated”, the Mcl-1 level entry is on record as “selectively up regulated; also recorded: increased” and the “phosphorylated Bcl-2 level” value is listed as “selectively up regulated; also recorded: increased”.
